According to patent US7635779B2, “Oxy substituted flavones as antihyperglycemic and antidyslipidemic agents” (Council of Scientific & Industrial Research, priority 2004, dated 2009):
Values joined by “and” are separate entries in the source; they are usually repeats but may differ in a detail not shown here. Equal values may be shown once. Marks after values point to notes of the source that are not given here.

Experiments:
[1] = system: db/db mice; assay: Antihyperglycemic activity in db/db mice; type: in vivo, mouse; conditions: for % Fall in blood glucose levels, 6 days: day 6; for % Fall in blood glucose levels, 10 days: day 10
Description: The db/db mouse is a well-characterized model of type II diabetes. The background for the db/db mouse is the C57BL/Ks strain. The major deficiency of the C57BL/KsBom-db mouse (db/db) is lack of a functional leptin receptor. This leads to defective leptin signaling and a complete lack of feedback from leptin. […] The db/db mouse develops NIDDM from around week 10. The disease is stable until week 20, where destruction of pancreatic β-cells can be recognized clinically as decreasing levels of plasma insulin and very severe hyperglycemia. The male mice are more diabetic than female and will normally die earlier. The advantage of using male mice for experimental purposes is that the fluctuations in plasma parameters are less than in the females where the estrogen cycles affects the clinical diabetes mellitus. The optimal age of db/db mice used for experiments will be from week 12 to 18 when they have developed NIDDM with diabetic dyslipidemia but still have functional β-cells in the pancreas. C57BL/KsBom-db mice 12-18 weeks, 40-50 g bred in the animal house of CDRI, Lucknow. 10 male mice were used in the experiments. The mice were housed in groups of 5 individuals in a room controlled for temperature (23+2° C.) and 12/12 hours light/dark cycle (lights on at 6.00 am). Body weight was measured daily from day 1 to day 10. All animals had free access to fresh water and to normal chow except on the days of the postprandial protocol day 6 and during the overnight fast before the OGTT on day 10. Blood glucose was checked every morning up till day 5. On day 6 postprandial protocol was employed, in this method blood glucose was checked at −0.30 min and 0 h. Test compounds were given to the treatment group whereas control group received only gum acacia (1.0%); the blood glucose was again checked at 1, 2, 3, 4 and 6 h post test compound treatment. Finally on day 10 an oral glucose tolerance test (OGTT) was performed after an overnight fasting. Blood glucose was measured at −0.30 min and test drugs were fed, blood glucose was again measured at 0.0 min post treatment, at this juncture glucose solution was given at a dose of 3 gm/kg to all the groups including control group; the profile of blood glucose was checked at 30 min, 60 min, 90 min and 120 min post glucose administration. Quantitative glucose tolerance of each animal was calculated by Area Under Curve (AUC) method (Prism Software). Comparing the AUC of experimental and control groups determined the percentage antihyperglycemic activity. Statistical comparison was made by Dunnett's test.

[2] = system: streptozotocin-induced diabetic rats; assay: Sucrose-challenged streptozotocin-induced diabetic rats (STZ-S); type: in vivo, rat; conditions: for % Fall in blood glucose levels, STZ-S 5 h / % Fall in blood glucose levels, STZ-S 24 h: 100 mg/kg oral
Experimental: Male albino rats of Sprague Dawley strain of body weight 160+20 g were selected for this study. Streptozotocin (Sigma, USA) was dissolved in 100 mM citrate buffer pH 4.5 and calculated amount of the fresh solution was injected to overnight fasted rats (45 mg/kg) intraperitoneally. Blood glucose level was checked 48 h later by glucostrips and animals showing blood glucose values between 144 to 270 mg/dl (8 to 15 mM) were included in the experiment and termed diabetic. The diabetic animals were divided into groups consisting of five to six animals in each group. Animals of experimental groups were administered suspension of the desired test samples orally (made in 1.0% gum acacia) at a dose of 100-mg/kg-body weight. Animals of control group were given an equal amount of 1.0% gum acacia. A sucrose load of 2.5-g/kg body weight was given after 30 minutes of compound administration. After 30 minutes of post sucrose load blood glucose level was again checked by glucostrips at 30, 60, 90, 120, 180, 240, 300 min and at 24 h, respectively. Animals not found diabetic after 24 hours post treatment of the test sample were not considered and omitted from the calculations and termed as non-responders. […] Food but not water was withheld from the cages during the experimentation. Comparing the AUC of experimental and control groups determined the percent antihyperglycemic activity. Statistical comparison between groups was made by Student's ‘t’ test.
As depicted in the FIGURE, a dose response curve of 34 was obtained by administering different doses of test compound to streptozotocin-induced diabetic rats (Table 6). […]

Row | SMILES | % Fall in blood glucose levels, 6 days [1] | % Fall in blood glucose levels, 10 days [1] | % Fall in blood glucose levels, STZ-S 5 h [2] | % Fall in blood glucose levels, STZ-S 24 h [2] | % Fall in blood glucose levels 5 h ([2]; Dose 25, 5 h) | % Fall in blood glucose levels 24 h ([2]; Dose 25, 24 h) | % Fall in blood glucose levels 5 h ([2]; Dose 50, 5 h) | % Fall in blood glucose levels 24 h ([2]; Dose 50, 24 h) | % Fall in blood glucose levels 5 h ([2]; Dose 100, 5 h) | % Fall in blood glucose levels 24 h ([2]; Dose 100, 24 h) | % Fall in blood glucose levels 5 h ([2]; Dose 150, 5 h) | % Fall in blood glucose levels 24 h ([2]; Dose 150, 24 h) | % Fall in blood glucose levels 5 h ([2]; Dose 200, 5 h) | % Fall in blood glucose levels 24 h ([2]; Dose 200, 24 h) | % Fall in blood glucose levels 5 h ([2]; Dose 250, 5 h) | % Fall in blood glucose levels 24 h ([2]; Dose 250, 24 h) | ED50 ([2]; Rattus norvegicus, STZ-S model, dose response)
1 | CC(C)NCC(O)COc1ccc2c(=O)cc(-c3cc(O)cc(O)c3)oc2c1 (stereo not shown) [Compound 49, 3′,5′-Dihydroxy-7-(2-hydroxy-3-iso-propylamino-propoxy)-flavone] | 9.38% | 20.8% and 20.5% | 26.9** % | 13.2* % |  |  |  |  |  |  |  |  |  |  |  |  | 
2 | COc1cc(-c2cc(=O)c3ccc(OCCCOc4ccc(C=C5SC(=O)NC5=O)cc4)cc3o2)cc(OC)c1OC [Compound 65, 7-{3-[4-(thiazolidin-2,4-dione-5-ylidinemethyl)-phenoxy]-propoxy}-3′,4′,5′-trimethoxy-flavone] | 19.1% | 21.4% | 16.1% | 11.0% |  |  |  |  |  |  |  |  |  |  |  |  | 
3 | CC(C)(C)NCC(O)COc1ccc2c(=O)cc(-c3cc(OCc4ccccc4)cc(OCc4ccccc4)c3)oc2c1 (stereo not shown) [Compound 34, 7-(3-tert-Butylamino-2-hydroxy-propoxy)-3′,5′-dibenzyloxy-flavone] | 26.4% | 57.1% | 21.6** % | 28.7** % | 11.1% | 13.6% | 9.62% | 13.8% | 19.8% | 21.9% | 24.3% | 30.5% | 38.1% | 37.0% | 40.7% | 45.5% | 90 mg/kg
